Measured values published in PMC12459184, “Design, synthesis, and bioevaluation of pyrazole-containing tubulin polymerisation inhibitors based on conformational constraint strategy” (Journal of Enzyme Inhibition and Medicinal Chemistry, 2025).
Read-outs that look alike come from different tables or passages of the source.

Experiments:
[1] = test system: SGC-7901 cells; test: MTT antiproliferative assay, SGC-7901; type: cell-based; conditions: Homo sapiens, read-out: IC50 (μM) ± SD SGC-7901
Protocol: The in vitro antiproliferative activities of all target compounds 4a−k, 5a−h, and 6a−h were assayed by MTT method using human gastric cancer cell line SGC-7901 and human breast cancer cell line MCF-7.
(§1) All cell lines tested in this study were purchased from the American Type Culture Collection (ATCC, Manassas, VA). SGC-7901 (human gastric adenocarcinoma), HCT-116 (human colon carcinoma), and A549 (human pulmonary carcinoma) cells were cultured in RPMI-1640 medium containing 10% foetal serum (FBS) and 1% penicillin-streptomycin solution (100×). MCF-7 (human breast carcinoma) cells were cultured in DMEM medium containing 10% foetal serum (FBS) and 1% penicillin-streptomycin solution (100×). PC-3 (human prostate carcinoma) cells were cultured in Ham’s F-12K medium containing 10% foetal serum (FBS) and 1% penicillin-streptomycin solution (100×). All cells were cultured at 37 °C in a humidified atmosphere containing 5% CO2.
(§2) Cells grown in logarithmic phase were harvested and seeded onto 96-well cell plates at a density of 4 ∼ 5 × 10^3 cells per well (various from cell type) and were cultured for 24 h. Different concentrations of compounds were added into the wells, and the cells were cultured for another 72 h. The medium was removed, then 20 μL of MTT (5 mg/mL in PBS) was added to each well and the cells were incubated for 4 h. 150 μL of DMSO was added to each well to dissolve the formazan, and the absorbance at 490 nm of each well was measured by a microplate reader. IC50 values were calculated by SPSS software.

[2] = test system: PC-3 cells; test: MTT antiproliferative assay, PC-3; type: cell-based; conditions: Homo sapiens, 72 h drug exposure, read-out: IC50 (μM) ± SD PC-3
Protocol: as §1, §2

[3] = test system: A549 cells; test: MTT antiproliferative assay, A549; type: cell-based; conditions: Homo sapiens, 72 h drug exposure, read-out: IC50 (μM) ± SD A549
Protocol: as §1, §2

[4] = test system: PC-3 cells; test: Transwell migration assay; type: cell-based, human; conditions: 24 h, relative to untreated cells
Protocol: Transwell migration assay was used on PC-3 cells to further investigate the effect of 4k and 5a on cell migration.
PC-3 cells in logarithmic phase were harvested and seeded onto six-well cell plates at a density of 4 × 10^4 cells per well, and were cultured for 24 h. […] Then these cells were harvested and seeded onto the top chambers of transwell filters (Corning) at a concentration of 4 × 10^4 cells with 200 μL of FBS-free medium per well in 24-well culture plates, while the bottom chambers were added 600 μL of medium containing 10% FBS. The cells were cultured for additional 24 h, then the cells that migrated to the bottom of the top chambers were fixed with 4% paraformaldehyde and subsequently stained with crystal violet solution. Images were taken by an inverted microscope and analysed by Fiji/ImageJ software.

[5] = test system: human liver cells (L02); test: MTT toxicity assay, normal cells L02; type: cell-based; conditions: for IC50: Homo sapiens, read-out: IC50 (μM) ± SD L02; for SI-L: SI-L = IC50 (L02)/IC50 (PC-3)
Protocol: The toxicity of compounds 4k and 5a was also tested by using human umbilical vein endothelial cells (HUVEC) and human liver cells (L02).
as §2

[6] = test system: PC-3 cells; test: Cell apoptosis analysis, Annexin V-FITC/PI flow cytometry; type: cell-based, human; conditions: 48 h
Protocol: To investigate the effect of 4k and 5a on cell apoptosis, flow cytometry was used to analyse the cell apoptosis of PC-3 cells. […] Early apoptosis cells could only be stained by Annexin V-FITC, while late apoptosis cells could be stained by both Annexin V-FITC and PI.
PC-3 cells in logarithmic phase were harvested and seeded onto 6-well cell plates at a density of 2.5 × 10^5 cells per well, and were cultured for 24 h. […] The cells were digested using trypsin and were harvested, washed twice with PBS, and resuspended in 500 μL binding buffer, followed by the addition of 100 μL of the cell suspension to 5 μL of Annexin V-FITC and 5 μL of PI. After stained for 15 min in a dark at room temperature, the samples were added 400 μL of binding buffer and detected by FACScan flow cytometry (BectoneDickinson, Franklin Lakes, NJ, USA).

[7] = test system: Cyclin B1; test: Western blot assay, Cyclin B1; type: cell-based, human; conditions: PC-3 cells, at the concentrations of 20 and 40 nM
Protocol: (§3) Additionally, western blot assay was employed to measure the expression level of cell cycle-related proteins cyclin-dependent kinase 1 (CDK1) and Cyclin B1.
(§4) PC-3 cells in logarithmic phase were harvested and seeded onto culture plates, and were cultured for 24 h. […] The proteins of PC-3 cells were extracted by RIPA buffer containing 1% PMSF (Beyotime Biotechnology, China). The protein concentration was measured by BCA Assay Kit (SEVEN Biotech, China). Equal amounts and concentration of protein were diluted in 5× loading buffer (Beyotime, China) and denatured by boiled for 5 min. Protein samples were separated on 12.5% SDS-PAGE gels (EpiZyme, China) and transferred to PVDF membranes (Millipore Corporation, Billerica, MA, USA). The membranes were blocked in QuickBlockTM Block Buffer (SEVEN Biotech, China) for 10 min at room temperature. Then the membranes were incubated with the primary antibodies overnight at 4 °C, including Cyclin B1 (1:2000, Proteintech, China), CDK1 (1:5000, Proteintech, China), BAX (1:5000, Proteintech, China), Bcl2 (1:1000, Proteintech, China), Caspase 9/p35/p10 (1:1000, Proteintech, China), and β-actin (1:20 000, Proteintech, China). […] The protein signals were detected by using chemiluminescent reagents kit (NCM Biotech, China) and visualised with ChemiDocImaging System (Tanon 5200, China). Protein expressions was quantified by using Fiji/ImageJ software.

[8] = test system: cyclin-dependent kinase 1 (CDK1); test: Western blot assay, CDK1; type: cell-based, human; conditions: PC-3 cells, at the concentrations of 40 and 20 nM
Protocol: as §3, §4

[9] = test system: PC-3 cells; test: Cell cycle analysis by flow cytometry; type: cell-based, human; conditions: 24 h, vehicle 15%
Protocol: The G2/M phase of cell cycle involves mass physiological activities of microtubules, and tubulin polymerisation inhibitors could arrest cell cycle in G2/M phase by inhibiting microtubule polymerisation.
PC-3 cells in logarithmic phase were harvested and seeded onto 6-well cell plates at a density of 2.5 × 10^5 cells per well, and were cultured for 24 h. […] The cells were digested using trypsin and the suspended cells were harvested. Then the cells were washed with PBS and fixed in 75% ice-cold ethanol at 4 °C overnight. The fixed cells were harvested by centrifugation and washed with PBS, resuspended in 535 μL buffer containing 10 μL RNase (50 ×) and 25 μL PI (20 ×). After incubation at 37 °C in the dark for 30 min, the samples were filtered by nylon screen and detected by FACScan flow cytometry (BectoneDickinson, Franklin Lakes, NJ, USA).

| IC50 ([1]; SGC-7901, 72 h drug exposure, MTT assay) | Structure (SMILES) | IC50 [2] | IC50 [3] | percentage of migrated cells ([4]; PC-3, 5 nM) | percentage of migrated cells ([4]; PC-3, 10 nM) | percentage of migrated cells ([4]; PC-3, 20 nM) | IC50 ([5]; 72 h drug exposure, MTT assay, normal cells) | SI-L [5] | percentage of apoptosis cells ([6]; PC-3, 10 nM, vehicle 18.3%) | percentage of apoptosis cells ([6]; PC-3, 25 nM, vehicle 18.3%) | level of Cyclin B1 [7] | level of CDK1 [8] | proportion of cells in G2/M phase ([9]; 10–40 nM) | IC50 ([1]; SGC-7901, 72 h) | IC50 ([5]; 72 h) | percentage of apoptosis cells ([6]; PC-3, 100 nM, vehicle 18.2%) | percentage of apoptosis cells ([6]; PC-3, 200 nM, vehicle 18.2%) | proportion of cells in G2/M phase ([9]; 70 nM) | proportion of cells in G2/M phase ([9]; 100 nM) |
| --- | --- | --- | --- | --- | --- | --- | --- | --- | --- | --- | --- | --- | --- | --- | --- | --- | --- | --- | --- |
| 0.017 ± 0.002 µM | COc1cc(C(=O)c2nn(-c3ccc(N)cc3)cc2N)cc(OC)c1OC [4k, (4-amino-1–(4-aminophenyl)-1H-pyrazol-3-yl)(3,4,5-trimethoxyphenyl)methanone] | 0.015 ± 0.004 µM | 0.04 ± 0.012 µM | 60.4% | 25.7% | 18.7% | 0.025 ± 0.008 µM | 1.713 | 27.1% | 34.1% | increase | increase | 33–71% | – | – | – | – | – | – |
| – | COc1cc(C2=NCC(=O)Nc3cn(-c4ccccc4)nc32)cc(OC)c1OC [5a, 2-Phenyl-8–(3,4,5-trimethoxyphenyl)-2,6-dihydropyrazolo[4,3-e][1,4]diazepin-5(4H)-one] | 0.006 ± 0.002 µM | 0.063 ± 0.017 µM | 53.6% | 49.1% | 27.8% | – | 35.00 | – | – | increase | increase | – | 0.018 ± 0.003 µM | 0.204 ± 0.056 µM | 26.6% | 41.5% | 35% | 71% |
